The source of these data is patent US20230109717A1 (GAIA BioMedicine Inc., priority 2020, published 2023).

In one series the test system is SKOV3 sphere. Put plainly: Evaluation of thawed highly active NK cells in a solid tumor model (3D killing assay). The format is cell-based, human. Conditions: added before freezing at 800 μM (preferable between 2,400 μM and 267 μM). The procedure:
To one of SKOV3 sphere inoculated beforehand in each well of a […] plate, 50 μL of the prepared NK cells were added, and allowed to react for 4 days at 37° C. under 5% CO2. Then, the cells were detached with Accutase, collected, and cultured in the RPMI medium on a 24-well plate for expansion. After 17 days of the expansion culture at 37° C. under 5% CO2, the cells were fixed with 4% PFA, stained with DAPI, and observed under a fluorescence microscope (BZ-9000, KEYENCE), and BZ-II Analysis Application was used to quantify the area of SKOV3 that was not injured by the NK cells.
The SKOV3 cells (human ovarian cancer cell line) were prepared at a density of 3×10^4 cells/mL in 10% FBS/RPMI 1640, and inoculated onto a 96-well plate in an amount of 3×10^3 cells/100 μL per well. Spheres were prepared by incubating the cells at 37° C. for 3 days under 5% CO2.

The next series has as its system K562 cells. Kind of series: Cytotoxic activity rate (% Lysis) of freeze-thawed highly active NK cells against K562 cells. In kind it is cell-based. Conditions: for Activity: Exmp. 7, collect. method 2. The procedure:
Cytotoxic activity can be expressed as the percentage of target cells killed by effector cells, and is calculated in accordance with the following equation.
(Cell death observed in co-culture with effector cells−Spontaneous cell death (negative control))/(Maximum cell death (positive control)−Spontaneous cell death (negative control))×100
For the measurement of cytotoxic activity, a group of the K562 cells reacted with the NK cells, a group consisting solely of the K562 cells as a negative control, and a group of the K562 cells fixed with 10% formalin as a positive control were prepared.
After incubation for the times indicated for the groups, the cells were collected, and prepared at a density of 2×10^6 cells/mL in 10% FBS/RPMI 1640.
The K562 cells (human chronic myelogenous leukemia cell line) were suspended in serum-free RPMI 1640 medium, stained with PKH26 Red Fluorescent Cell Linker Kit (Sigma, PKH26GL-1KT), and finally prepared at a density of 2×10^6 cells/mL in 10% FBS/RPMI 1640.
The NK cells and K562 cells were added and mixed in wells of 96-well plate (IWAKI, 4870-800SP) at a cell ratio of 1:1, and allowed to react at 37° C. for 2 hours under 5% CO2. After the reaction, the plate was centrifuged (500×g, 5 minutes), and the supernatant was removed. Then, a 7-AAD solution diluted with PBS was added to the cells to suspend the cells, and the suspension was incubated at room temperature for 20 minutes. […]
For the measurement of cytotoxic activity, a group of the NK cells reacted with the K562 cells, a group solely consisting of the K562 cells as a negative control, and a group of the K562 cells fixed with 10% formalin as a positive control were prepared.
The cells were thawed and diluted by the method described above, and a necessary amount of the cells were taken on the basis of the number of viable cells at the time of freezing, and then prepared at a density of 2×10^6 cells/mL in 10% FBS/RPMI 1640.
The K562 cells were suspended in serum-free RPMI 1640 medium, stained with PKH26 Red Fluorescent Cell Linker Kit, and then prepared at a density of 2×10^6 cells/mL in 10% FBS/RPMI 1640. […]
For the measurement of cytotoxic activity, a group of NK cells reacted with K562 cells, a group of K562 cells only as a negative control, and a group of K562 cells fixed with 10% formalin as a positive control were prepared. […]
(9-2) Cytotoxic activity was measured in the same manner as described in the section of (9-1), but after thawing and dilution, the cells were left to stand for up to 6 hours, and cytotoxic activity was measured by the method described in the section b) mentioned above at the time points of 2, 5, and 6 hours. In detail, the NK cells and K562 cells were added to each well of a 96-well plate (IWAKI, 4870-800SP) at a cell ratio of 1:1, mixed, and then allowed to react at 37° C. for 2 hours under 5% CO2.

Each structure is given as a SMILES string. “Also recorded” adds a separate entry of the source.

`C[C@H](CCC(=O)NCCS(=O)(=O)O)[C@H]1CC[C@H]2[C@@H]3[C@@H](O)C[C@@H]4C[C@H](O)CC[C@]4(C)[C@H]3CC[C@]12C` [TUDCA, tauroursodeoxycholic acid dihydrate]: in the series on SKOV3 sphere, the “Killing activity against the solid tumor model” value was “higher killing activity”. Besides, the Activity result was “A (A means 70% or higher)” with K562 cells (pretreatment KBM + 266 μM TUDCA 2 h, thawing PlasmaLyte + IL-2, R.T. 1 h); “A (A means 70% or higher)” in the series with K562 cells (pretreatment KBM + 266 μM TUDCA 2 h, thawing PlasmaLyte + IL-2, R.T. 1 h, then KBM 2 h); “A (A means 70% or higher)” in the series on K562 cells (pretreatment KBM + 266 μM TUDCA 2 h, thawing PlasmaLyte + IL-2, R.T. 3 h); “A (A means 70% or higher)” in the series with K562 cells (pretreatment KBM + 266 μM TUDCA 2 h, thawing PlasmaLyte R.T. 1 h); “A (A means 70% or higher)” in the series with K562 cells (pretreatment KBM + 266 μM TUDCA 2 h, thawing PlasmaLyte R.T. 1 h, then KBM 2 h); “A (A means 70% or higher)” in the series with K562 cells (pretreatment KBM + 266 μM TUDCA 2 h, thawing PlasmaLyte R.T. 3 h). In addition, the Activity result is “A (A means 70% or higher)” in the series with K562 cells (pretreatment KBM + 800 μM TUDCA 2 h, thawing PlasmaLyte + IL-2, R.T. 1 h); “A (A means 70% or higher)” in the series with K562 cells (pretreatment KBM + 800 μM TUDCA 2 h, thawing PlasmaLyte + IL-2, R.T. 1 h, then KBM 2 h); “A (A means 70% or higher)” in the series with K562 cells (pretreatment KBM + 800 μM TUDCA 2 h, thawing PlasmaLyte + IL-2, R.T. 3 h); “A (A means 70% or higher)” in the series on K562 cells (pretreatment KBM + 800 μM TUDCA 2 h, thawing PlasmaLyte R.T. 1 h); “A (A means 70% or higher)” in the series with K562 cells (pretreatment KBM + 800 μM TUDCA 2 h, thawing PlasmaLyte R.T. 1 h, then KBM 2 h); “A (A means 70% or higher)” with K562 cells (pretreatment KBM + 800 μM TUDCA 2 h, thawing PlasmaLyte R.T. 3 h). Further, the Activity entry in the series on K562 cells (pretreatment KBM + 2400 μM TUDCA 2 h, thawing PlasmaLyte + IL-2, R.T. 1 h) is reported as “A (A means 70% or higher)”; in the series with K562 cells (pretreatment KBM + 2400 μM TUDCA 2 h, thawing PlasmaLyte + IL-2, R.T. 1 h, then KBM 2 h), “A (A means 70% or higher)”; in the series on K562 cells (pretreatment KBM + 2400 μM TUDCA 2 h, thawing PlasmaLyte + IL-2, R.T. 3 h) it was “A (A means 70% or higher)”; in the series on K562 cells (pretreatment KBM + 2400 μM TUDCA 2 h, thawing PlasmaLyte R.T. 1 h), “A (A means 70% or higher)”; in the series on K562 cells (pretreatment KBM + 2400 μM TUDCA 2 h, thawing PlasmaLyte R.T. 1 h, then KBM 2 h), “A (A means 70% or higher)”; in the series with K562 cells (pretreatment KBM + 2400 μM TUDCA 2 h, thawing PlasmaLyte R.T. 3 h), “A (A means 70% or higher)”. The “Cytotoxic activity of frozen and thawed highly active NK cells” value in the series with K562 cells (pretreatment 2 hours, 10 to 810 μM, Plasma-Lyte A after thawing, 1 and 3 hours, K562, E:T 2:1, 2 hours, Example 6, dihydrate) is listed as “Improvement of the cytotoxic activity; also recorded: improved in a TUDCA concentration-dependent manner”.
